Reference: patent publication US20080220416A1, “Compositions for Inhibiting Cell Growth and Inducing Apoptosis in Cancer Cells and Methods of Use Thereof” (THE BOARD OF TRUSTEES OF THE UNIVERSITY OF ILLINOI, priority 2004, published 2008)
Square brackets hold non-standard residues; d marks the D form. Peptide text beside a SMILES is read from it. * marks the point of attachment. Nle = CCCC[C@H](N)C(=O)O; Cbz = O=C(OCc1ccccc1)*

How the values were obtained:
Assay type in all cases: cell-based
NOXA = NOXA induction in multiple myeloma cell lines (Western blot); settings: RPMI8226 and U266; 24 hours; bortezomib 0.01 to 10 μM, MG-132 10 μM, z-Leu-Leu-Nle-CHO 10 μM
Experimental: (§1) Two different multiple myeloma cell lines (RMP18226 and U266) (ATCC, Rockville, Md.) were treated for 24 hours with various concentrations of the proteasome inhibitors bortezomib (0.01 to 10 μM) and MG-132 (10 μM), or the dual inhibitor z-Leu-Leu-Nle-CHO (10 μM). The cells were evaluated for induction of NOXA and an increase in cleaved caspase 3, by Western blot analysis and for cell viability using APO TARGET Annexin V-FITC staining kits (Biosource) as described above. The caspase 3 antibody was purchased from Abcam (Cambridge, Mass.). […] At a concentration of 10 μM, bortezomib induces approximately equal NOXA levels compared to the other proteasome inhibitor tested (MG-132) and the dual inhibitor z-Leu-Leu-Nle-CHO. The induction of NOXA coincided with the appearance of cleaved caspase 3, which is involved in the final stage of cell death. […] FIG. 12 is graph showing representative results from bortezomib treatment. The induction of apoptosis is concentration-dependent (FIG. 12); with doses as low as 0.01 μM bortezomib trigger significant apoptosis (p<0.05).

RPMI8226 myeloma cells = assay: Apoptosis of myeloma cell line RPMI8226 (Annexin V-FITC); settings: for apoptotic response: after 18 hrs
Experimental: as §1, with “The” for “Two different multiple myeloma cell lines (RMP18226 and U266) (ATCC, Rockville, Md.) were treated for 24 hours with various concentrations of the proteasome inhibitors bortezomib (0.01 to 10 μM) and MG-132 (10 μM), or the dual inhibitor z-Leu-Leu-Nle-CHO (10 μM). The”

[1] = test system: CaSki human cervical cancer cells; assay: Cell growth inhibition assay in CaSki cervical cancer cells (crystal violet)
Experimental: The cell growth inhibition assay was performed in a 96-well plate format. Inhibition was assessed by monitoring the protein content in each well using the crystal violet staining method as described by Skehan et al., 1990, J Natl Cancer Inst 82:1107-1112 and Prochaska et al., 1988, Anal Biochem 169:328-336. Briefly, cells were plated at a density of 2×10^4 cells/ml in 200 μl of DMEM supplemented with 10% FBS. The cells were transfected with siRNAs ([…] siRNA oligos/well) using Oligofectamine Transfection Reagents (InVitrogen) according to manufacturer's instructions. Twenty-four hours post-transfection, the media was decanted, 190 μl of fresh media was added to each well, and 10 μl of cisplatin (4 mM) dissolved in 10% DMSO was added to the wells as a series 2-fold dilutions (final concentration of cisplatin in the wells ranged from 0.5-200 μM). The cells were incubated with cisplatin for 48 hrs, the media was decanted, and the cells were submerged with 200 μl of 0.2% crystal violet in 2% ethanol for 10 min. The plates were rinsed for 2 min with tap water. The bound dye was solublized by incubation at 37° C. for 1 h with 200 μl of 0.5% sodium dedecyl sulfate in 50% ethanol. The plates were then scanned with an ELISA reader at 562 nm. The percentage cell growth inhibition mediated by cisplatin was calculated as: % inhibition=[1-(OD of cisplatin-treated cells/OD DMSO-treated control cells)]×100/100.
CaSki human cervical cancer cells treated for 48 hrs with z-Leu-Leu-Nle-CHO alone were tested for cell growth inhibition. The cell growth inhibition assay was performed in a 96-well plate format. Inhibition was assessed by monitoring the protein content in each well using the crystal violet staining method Skehan, P. et al., 1990, J Natl Cancer Inst 82:1107-1112. Briefly, cells were plated at a density of 2×10^4 cells/ml in 200 μl of DMEM supplemented with 10% FBS. After pre-incubation period of 24 h, the media was decanted, 190 μl of fresh media was added to each well, and 10 μl (150 μM) of z-Leu-Leu-Nle-CHO dissolved in 10% DMSO was added to the wells as a series 2-fold dilutions (final concentration of cisplatin in the wells ranged from 0.05-7.5 μM). The cells were incubated with z-Leu-Leu-Nle-CHO for 48 hrs, the media was decanted, and the cells were submerged with 200 μl of 0.2% crystal violet in 2% ethanol for 10 min. The plates were rinsed for 2 min with tap water. The bound dye was solublized by incubation at 37° C. for 1 h with 200 μl of 0.5% sodium dedecyl sulfate in 50% ethanol. The plates were then scanned with an ELISA reader at 562 nm. The percentage cell growth inhibition mediated by test agents was calculated as: % inhibition=[1-(OD of z-Leu-Leu-Nle-CHO-treated cells/OD DMSO-treated control cells)]×100/100.
To determine whether z-Leu-Leu-Nle-CHO treatment potentiates the effect of cisplatin on human […] cancer cells, the CaSki cells were treated for 48 h with 0.1-0.8 μM z-Leu-Leu-Nle-CHO and various concentrations of cisplatin (2-fold dilutions of a cisplatin solution to produce final concentrations of 1.6-200 μM cisplatin). Following the z-Leu-Leu-Nle-CHO and cisplatin treatment, the cells were tested for growth inhibition as described above.
Isobologram analysis was performed by measuring the IC50 values of cisplatin in the presence of various concentrations of z-Leu-Leu-Nle-CHO. These IC50 values were plotted with SigmaPlot, and a straight line was traced between the IC50 values of cells treated with either cisplatin or z-Leu-Leu-Nle-CHO alone.

Row | Compound | NOXA induction (NOXA) | apoptotic response (RPMI8226 myeloma cells) | effect on cisplatin cell growth inhibition ([1]; 0.1-0.8 μM, doses lower than IC50, 48 h) | IC50 ([1]; Homo sapiens, Ca-Ski, alone, 48 hrs, read-out: IC50, cell growth inhibition) | isobologram analysis with cisplatin ([1]; especially at low cisplatin concentrations (1-50 μM)) | lowest dose triggering significant apoptosis (p<0.05) (RPMI8226 myeloma cells) | effect on cytotoxicity of cisplatin ([1]; siRNA 24 h before cisplatin)
1 | CCCC[C@@H](C=O)NC(=O)[C@H](CC(C)C)NC(=O)[C@H](CC(C)C)NC(=O)OCc1ccccc1 [z-Leu-Leu-Nle-CHO, N-benzyloxycarbonyl-leucyl-leucyl-norleucinal] (Cbz-Leu-Leu-[Nle]-aldehyde) | found to induce NOXA | triggered significant apoptotic response after 18 hrs | potentiated the effects of cisplatin | 640 nM | moderate synergism |  | 
2 | CC(C)C[C@H](NC(=O)[C@H](Cc1ccccc1)NC(=O)c1cnccn1)B(O)O [bortezomib, N-(2-pyrazine)carbonyl-L-phenylalanine-L-leucine boronic acid] | induces NOXA in a concentration dependent manner | triggered significant apoptotic response after 18 hrs |  |  |  | 0.01 µM | 
3 | 5′-AAGTGTCTGAGGCCAGCAAGA-3′ [Notch-1 siRNA] |  |  |  |  |  |  | strikingly potentiated the cytotoxicity of cisplatin
4 | CC(C)C[C@@H](C=O)NC(=O)[C@H](CC(C)C)NC(=O)[C@H](CC(C)C)NC(=O)OCc1ccccc1 [MG-132, benzoxycarbonyl-Leucyl-Leucyl-Leucyl-aldehyde] (Cbz-Leu-Leu-Leu-aldehyde) | found to induce NOXA | triggered significant apoptotic response after 18 hrs |  |  |  |  | 
